Experiments:
Rattus norvegicus [1] = experiment: Hypoglycemic activity in STZ-nicotinamide Wistar rat model of diabetes at 50 mg/kg administered intragastrically as single dose measured after 7 hrs relative to control; assay type: functional; settings: route intragastric
Rattus norvegicus [2] = experiment: Hypoglycemic activity in STZ-nicotinamide Wistar rat model of diabetes at 50 mg/kg administered intragastrically as single dose; assay type: functional, organism-based; set-up: dose 50 mg/kg; settings: TDE = time-dependent effect

Structure (SMILES) | Activity (Rattus norvegicus [1]) [%] | Activity (Rattus norvegicus [2])
Cc1c(C(=O)NN2CCCCC2)nn(-c2ccc(F)cc2F)c1-c1ccc(C(F)(F)F)cc1 | 54.2 | –
Cc1c(C(=O)NN2CCCCC2)nn(-c2ccc(C(F)(F)F)cc2)c1-c1ccc(Cl)cc1 | 27.3 | –
Cc1c(C(=O)NN2CCCCC2)nn(-c2ccc(F)cc2F)c1-c1ccc(F)cc1 | 49.4 | tde
COc1ccc(Cl)cc1C(=O)NCCc1ccc(S(=O)(=O)NC(=O)NC2CCCCC2)cc1 [GLYBURIDE] | 38 | –
Cc1c(C(=O)NN2CCCCC2)nn(-c2ccc(F)c(Cl)c2)c1-c1ccc(F)cc1 | 58.7 | tde
Cc1c(C(=O)NN2CCCCC2)nn(-c2ccc(Cl)cc2Cl)c1-c1ccc(C(F)(F)F)cc1 | 43.9 | –
Cc1c(C(=O)NN2CCCCC2)nn(-c2ccc(Cl)cc2Cl)c1-c1ccccc1 | 1.08 | –
Cc1c(C(=O)NN2CCCCC2)nn(-c2ccc(C(F)(F)F)cc2)c1-c1ccc(Br)cc1 | -2.4 | –
Cc1c(C(=O)NN2CCCCC2)nn(-c2ccc(Cl)cc2Cl)c1-c1ccc(Cl)cc1 [RIMONABANT] | 25.4 | –
Cc1c(C(=O)NN2CCCCC2)nn(-c2ccccc2)c1-c1ccccc1 | 37.2 | –
Cc1c(C(=O)NN2CCCCC2)nn(-c2ccnc3cc(Cl)ccc23)c1-c1ccc(Cl)cc1 | 34.2 | –
Cc1c(C(=O)NN2CCCCC2)nn(-c2ccnc3cc(Cl)ccc23)c1-c1ccc(F)cc1 | 22.4 | –
Cc1c(C(=O)NN2CCCCC2)nn(-c2ccc(Cl)c(Cl)c2)c1-c1ccc(Cl)cc1 | 54.7 | tde
Cc1c(C(=O)NN2CCCCC2)nn(-c2ccc(F)c(Cl)c2)c1-c1ccc(Cl)cc1 | 33.6 | –

Source: ChEMBL document CHEMBL3102729, “Synthesis, hypoglycemic activity and molecular modeling studies of pyrazole-3-carbohydrazides designed by a CoMFA model” (2013)
